Laboratory results published in paper PMC12188386, “Selective CBP/EP300 Bromodomain Inhibitors: Novel Epigenetic Tools to Counter TNF-α-Driven Inflammation” (JACS Au, 2025).
Values after ≈ are worked out from the molar mass of the structure shown. Like-named read-outs stand apart in the source and are kept apart here.

What was measured:
[1] = tested on: TNF-α-induced cytokine expression in THP-1 cells; experiment: cytokine mRNA expression by RT-qPCR; type: cell-based, human; conditions: 1 h co-treatment of THP-1 cells with 10 ng/mL TNF-α and 1 μM compound
Description: For cytokine expression determination, 5x10^5 THP-1 cells were plated on 12 well plates the day prior to treatment with 10 ng/mL recombinant human TNF -α (aa 77-233) protein (R&D systems, 10291 -TA) and compounds at a final concentration of 0.1 % DMSO. In all cases, total
(§1) RNA was extracted using the NucleoSpin® RNA kit (Machery -Nagel) and used for cDNA synthesis with the High -Capacity cDNA Reverse Transcription kit (Applied Biosystems). RT-qPCR reactions were performed using PowerSYBR™ green PCR Master Mix (Applied Biosystems) and a LightCycler® 480 (Roche). cDNA was denatured for 10 min at 95 °C followed by 40 cycles of 15 s at 95 °C and 1 min at 60 °C. Cp values were determined as the maximum of the second derivative and target gene expression was compared to that of hprt from the same sample using the 2-ΔCp method. Gene expression was then normalized to the average of the control samples from the same day, or all biological replicates. […]

[2] = tested on: TNF-α-induced IL-8 secretion from THP-1 cells; experiment: cytokine protein measurement (LEGENDPlex); type: cell-based, human; conditions: 10 ng/mL TNF-α, 1 μM compound
Description: For cytokine expression determination, 5x10^5 THP-1 cells were plated on 12 well plates the day prior to treatment with 10 ng/mL recombinant human TNF -α (aa 77-233) protein (R&D systems, 10291 -TA) and compounds at a final concentration of 0.1 % DMSO. In all cases, total […]
Cytokine protein measurements
THP-1 cells were plated and treated as for the quantitative RT -PCR, then the cell culture medium was harvested by pelleting the cells (300g, 3min) and taking the supernatant .
Cytokine protein concentrations were determined using the LEGENDPlexTM Human Inflammation Panel 1 (BioLegend) assay with 25 µL of culture medium following the manufacturer’s instructi ns. amp es were ana zed f w c t metr n an rtessa Biosciences), and data was analyzed using LEGENDPlex software (BioLegend).

MRC5 cells = experiment: viability assay (resazurin); type: cell-based; conditions: three-day treatment, concentration resulting in 70 % viability
Description: MRC5 (2x10^3 cells/well) or THP-1 (8x10^3 cells/well) cells were plated onto 96 well plates and treated with compounds at a final DMSO concentration of 0.5 % (MRC5) or 0.1 % (THP-1).
After 3 days of treatment, resazurin (Acros Organics) was added at a final concentration of 86 μ and incu ated for 2h15 (MRC5) or 3 h (THP-1). Fluorescence (ex. 560 nm, em. 590 nm) was read using a SpectraMax M5 (Molecular devices). GI30 values were calculated as the compound concentration resulting in 70 % viability compared to DMSO treated controls using a nonlinear regression fit using GraphPad Prism with the following equation: (Y=Bottom + (100-Bottom)/(1+(IC50/X)^HillSlope)). […]
After 1.5 h, mice were injected with 10 µL of the prepared CAPTISOL […]
foodpad and also intraperitoneally (for i.p. injection, the 10 µL of CAPTISOL solution was diluted to a final volume of 100 µL using PBS). Organs were collected 5 h after TNF-α […]
LEGENDPlexTM assays (Mouse Pro-inflammatory Chemokine Panel and Mouse Inflammation Panel; Biolegend) were performed to monitor cytokine/chemokine expression. Briefly, popliteal LNs were collected and carefully disrupted in […] ice-cold phosphate buffer, minimizing cell rupture. The suspension was centrifuged at 1,500 rpm for 5 min, and the […]

CBP-BRD = conditions: TR-FRET, read-out: Affinity to CBP-BRD, IC50, cited from earlier work
BRD4(1)-BRD = conditions: cited from earlier work
kinetic solubility = type: physicochemical; conditions: PBS buffer, aqueous buffer, kinetic from dmso stock, PBS pH 7.4, 37°C, ± st. dev. between technical replicates, read-out: Kin. Sol.
Description: Starting from an initial concentration of 100, 50 or 20 µM, a 2-fold serial dilution of the compound (10 mM stock in DMSO) was prepared in a mixture of ACN/Buffer (PBS, pH = 7.4) 2:8, with 1% DMSO. 350 µL was transferred to a 96-Well Plate (Greiner, UV-star) then UV absorption (240-400 nm, 10 nm steps) was measured. The absorption was blank-corrected and plotted against concentration. The wavelength (λ) providing the best fitting straight line […]
was used as the calibration curve. To obtain saturated solutions of the compounds of interest, in duplicates 4.4 µL of a 10 or 5 mM stock in DMSO was added to 436 µL Buffer (PBS, pH = 7.4), to give a final concentration of 100 or 50 µM. Samples were incubated on a shaker (500 rpm) at 37°C for 90 minutes and then filtered (Millex-GV 13 mm, 0.22 µm). 304 µL of the filtrate was mixed with 76 µL of acetonitrile on a dilution plate, from which 350 µL was transferred to a UV-plate and UV-absorption was read using a SpectraMax M5 (Molecular devices). The absorbance was blank-corrected and compared to the calibration curve to […]
solubility. The wavelengths used for the calibration curve are available in Table S4.
Based on the known density of 12.5 % CAPTISOL® solution (d = 1.05755 g/mL at 25 °C), the precise weight of the resulting solution and so the required amount of water by weight was calculated. The water was added portion wise with agitation, vortexing and sonication cycles in between additions. The saturated solutions were then filtered (Millex-GV 13 mm, 0.22 µm). In duplicates, aliquots of the filtrates were taken and diluted with blank 12.5 % CAPTISOL® water solution in either a 1:14 (higher sol. compounds) or 1:7 (lower sol. compounds) ratio, 350 µL was transferred to a 96-Well Plate (Greiner, UV-star) then UV absorption (240-400 nm, 10 nm steps) was measured using a SpectraMax M5 (Molecular devices). The absorption was blank-corrected, compared to the calibration curve obtained during the solubility measurement method above and finally corrected for the dilution ratio to obtain the compound concentration in the saturated 12.5 % CAPTISOL® solution. The calculated concentrations are available in Table S4.
BROMOscan™ assays (provided by Eurofins DiscoverX, US)1,2 […]
coli host derived from the BL21 strain. E. coli were grown to log-phase and infected with T7 phage from a frozen stock (multiplicity of infection = 0.4) and incubated with shaking at 32°C until lysis (90-150 minutes). The lysates were centrifuged (5,000 x g) and filtered (0.2µm) to remove cell debris. Streptavidin-coated magnetic beads were treated with biotinylated small molecule or acetylated peptide ligands for 30 minutes at room temperature to generate affinity resins for bromodomain assays. The liganded beads were blocked with excess biotin and washed with blocking buffer (SeaBlock (Pierce), 1 % BSA, 0.05 % Tween 20, 1 mM DTT) to remove unbound ligand and to reduce non specific phage binding. Binding reactions were assembled by combining bromodomains, liganded affinity beads, and test compounds (see […]
Sodium azide, 7.4 mM DTT). All reactions were performed in polypropylene 384-well plates in a final volume of 0.02 mL. The assay plates were incubated at room temperature with […]
20). The beads were then resuspended in elution buffer (1x PBS, 0.05% Tween 20, 2 µM non-

[3] = target: T1, CBP-BRD (ePL-CBP-BRD in HEK293T cells) (Homo sapiens, UniProt Q92793); experiment: CBP-BRD InCELL Pulse cellular target engagement; type: cell-based; conditions: 1 h compound treatment of HEK293T cells transiently transfected with ePL-CBP-BRD
T1 construct: (residues 1083-1197) was cloned into the pICP-ePL-C vector; expressed in transfected cells; host or cells: HEK293T, transient transfection (vector pICP-ePL-C, DiscoverX 94-4007S)
T1 sequence (Q92793 1083-1197): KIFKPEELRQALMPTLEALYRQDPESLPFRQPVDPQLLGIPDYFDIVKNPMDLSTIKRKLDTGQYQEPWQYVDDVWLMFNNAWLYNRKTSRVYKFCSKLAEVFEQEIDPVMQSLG
Description: The CBP-BRD (residues 1083-1197) was cloned into the pICP-ePL-C vector (DiscoverX, 94-4007S) between the EcoRI and XhoI restriction sites using the hexahistidine-CREBBP plasmid as a template. 5x10^5 HEK293T cells were plated on a 6 well plate the day prior to transfection with 1.5 μg ePL-CBP-BRD plasmid using 5 μl FugeneHD (Promega E2311) in 500 μl optiMEM® (Gibco, 31985062) . Proteins were allowed to express for 20 h before cells were trypsinized, washed and resuspended in low -serum medium (DMEM with 5 % FBS). Compounds were serially diluted in DMSO at 100x, pre-diluted to 5x in complete medium (DMEM with 10 % FBS and 1 % P/S), then added to a suspension of 5x10^3 cells, giving a final DMSO concentration of 1 %. Treated cells were incubated for 1 h at 37 °C in an incubator, followed by a heat shock for 3 min at 45 °C and recovery for 3 min at 22 °C using a thermocycler with a ramp rate of 1 °C/s (SimpliAmp, Thermo Fisher). Stab ilized ePL tag was quantified using the InCELL detecti n Kit isc verX as per the manufacturer’s pr t c usin the -10 working detection solution and a 2 h incubation before reading luminescence with a SpectraMax M5 plate reader (Molecular devices). […]

[4] = tested on: myc expression in LP1 cells; experiment: myc mRNA expression by RT-qPCR; type: cell-based; conditions: 4 h treatment of LP1 cells with 1 μM compound
Description: For myc expression, 1x10^6 LP1 cells were plated the day prior to a 4 h treatment with compounds at a final DMSO concentration of 0.1 %. […]
In all cases, total
as §1

With `CNC(=O)Nc1ccc2c(c1)CC[C@@]21OC(=O)N(CC(=O)N(Cc2ccc(F)cc2)[C@@H](C)C(F)(F)F)C1=O` [A485] the “TNF-α-induced expression of il1β, il8, mcp-1 and tnf-α (mRNA)” value [1] was “significantly reduced the TNF-α-induced expression of all four tested genes”, the “TNF-α-induced IL-8 protein secretion” value [2] was “significantly reducing its TNF-α-induced secretion” and the GI30 (MRC5 cells) was 1200 nM.

In the case of `C[C@@H]1CC(=O)Nc2cccc(-c3ccc4c(c3)c(-c3cnn(C)c3)nn4C)c2N1` [CPI-637], the IC50 (CBP-BRD; ref Taylor et al., 2016) is listed as 30 nM and the “Sel. over BRD4(1)-BRD” value (BRD4(1)-BRD; ref Taylor et al., 2016) is listed as 367 fold.

Work on `Cc1cc2c(NC(=O)c3cc(NC(=O)c4ccco4)cc(-c4nn(C)cc4Cl)c3)cccc2nn1` [Compound 3] yielded a solubility kinetic at 90 min (kinetic solubility) of 9.5 ± 0.4 µM (≈ 4.63 µg/mL).

In the case of `Cc1cc2c(NC(=O)c3cc(NC(=O)c4ccco4)cc(-c4c(C)n[nH]c4C)c3)cccc2nn1` [Compound 4], the solubility kinetic at 90 min (kinetic solubility) is reported as 6 ± 1 µM (≈ 2.8 µg/mL).

In the case of `Cc1cc2c(NC(=O)c3cc(NC(=O)[C@@H]4CCCO4)cc(-c4ccn(C)n4)c3)cccc2nn1` [Compound 6], the “cellular binding to CBP-BRD (InCELL Pulse)” value [3] is reported as “able to engage the target very similarly”, the “myc mRNA expression” value [4] is reported as “significantly decreased the expression level of myc” and the solubility kinetic at 90 min (kinetic solubility) is reported as 71 ± 0.7 µM (≈ 32.4 µg/mL).

For `Cc1cc2c(NC(=O)c3cc(NC(=O)C4COC4)cc(-c4ccn(C)n4)c3)cccc2nn1` [Compound 7], the solubility kinetic at 90 min (kinetic solubility) was 82.6 ± 0.7 µM (≈ 36.5 µg/mL).

`Cc1cc2c(NC(=O)c3cc(NC(=O)c4ccc(CN5CCN(C)CC5)o4)cc(-c4ccn(C)n4)c3)cccc2nn1` [Compound 8] showed a solubility kinetic at 90 min (kinetic solubility) of 69.9 ± 2.3 µM (≈ 39.5 µg/mL).

For `CNC(=O)N1CCc2c(c(N3CCCc4cc(-c5cnn(C)c5)c(C(F)F)cc43)nn2C2CCOCC2)C1` [GNE-781], the IC50 (CBP-BRD; ref Romero et al., 2017) is given as 0.9 nM and the “Sel. over BRD4(1)-BRD” value (BRD4(1)-BRD; ref Romero et al., 2017) is given as 5425 fold.

For `COc1ccc(CCc2nc3cc(-c4c(C)noc4C)ccc3n2C[C@H](C)N2CCOCC2)cc1Cl` [SGC-CBP30], the “Sel. over BRD4(1)-BRD” value (BRD4(1)-BRD; ref Hay et al., 2014) is given as 40 fold.

For `COc1ccc(CCc2nc3cc(-c4c(C)noc4C)ccn3c2NC2CCCCC2)cc1Cl` [UMB298], the “Sel. over BRD4(1)-BRD” value (BRD4(1)-BRD; ref Muthengi et al., 2021) is listed as 72 fold.
